# Values of other authors in US20040139488A1, “Compositions and methods for enhancing disease resistance in fish” (priority 2002, published 2004).
# Assays:
# Aeromonas salmonicida = settings: synthesized, HPLC-purified peptide, in vitro
# E. ictaluri = settings: synthesized, HPLC-purified peptide, in vitro
substance,measurement,setting,value
"cecropin B: mature cecropin B from Hyalophora cecropia (SEQ ID NO:19), synthesized peptide purified by high-pressure liquid chromatography (KWKVFKKIEKMGRNIRNGIVKAGPAIAVLGEAKALG; listed as Hyalophora cecropia)",bactericidal activity against Aeromonas salmonicida,Aeromonas salmonicida,possess the predicted bactericidal activity
same,bactericidal activity against E. ictaluri,E. ictaluri,possess the predicted bactericidal activity
